Laboratory results taken from patent publication US8569292B2, “Cyclic inhibitors of 11β-hydroxysteroid dehydrogenase 1” (Vitae Pharmaceuticals, Inc., priority 2008, dated 2013).
Read-outs that look alike come from different tables or passages of the source.

Tests used:
[1] = biological target: T1, 11β-HSD1 (Homo sapiens, UniProt P28845)
[2] = Biological Test Example 5: fraction unbound in human plasma (equilibrium dialysis); type: in vitro ADME
Experimental: Plasma protein binding of compounds was determined with Equilibrium Dialysis of spiked plasma against compound free dextrane buffer using a dialysis membrane with mass cutoff of 5000 Da. Compound concentrations in plasma and buffer after incubation were measured using HPLC/Mass spectrometry.

[3] = biological target: CYP3A4 (Homo sapiens, UniProt P08684); assay: Biological Test Example 6: CYP3A4 inhibition (erythromycin N-demethylation); type: in vitro ADME
[4] = biological target: T1, 11β-HSD1; assay: biochemical; conditions: for inhibition at 0.1 µM: read-out: Average % inhibition at 100 nM
[5] = biological target: T1, 11β-HSD1; assay: Biological Test Example 4: microsomal 11β-HSD1 in the presence of 50% human plasma; conditions: for Shift: IC50 in Test Example 4 divided by IC50 in Test Example 1
[6] = biological target: T2, CYP2C9 (Homo sapiens, UniProt P11712); assay: Biological Test Example 9: CYP2C9 inhibition (Invitrogen kit, fluorogenic OOMR); type: in vitro ADME
T2 construct: purchased Invitrogen 2859; host or cells: insect cells infected with baculovirus (microsomes)

[7] = biological target: T2, CYP2C9; assay: Biological Test Example 7: CYP2C9 inhibition (naproxen O-demethylation); type: in vitro ADME
[8] = biological target: CYP2C19 (Homo sapiens, UniProt P33261); assay: Biological Test Example 8: CYP2C19 inhibition (diazepam N-demethylation); type: in vitro ADME
[9] = Biological Test Example 1 IC50 (nM)
[10] = IC50 Range, Biological Test Example 1

T2 sequence (P11712 whole entry): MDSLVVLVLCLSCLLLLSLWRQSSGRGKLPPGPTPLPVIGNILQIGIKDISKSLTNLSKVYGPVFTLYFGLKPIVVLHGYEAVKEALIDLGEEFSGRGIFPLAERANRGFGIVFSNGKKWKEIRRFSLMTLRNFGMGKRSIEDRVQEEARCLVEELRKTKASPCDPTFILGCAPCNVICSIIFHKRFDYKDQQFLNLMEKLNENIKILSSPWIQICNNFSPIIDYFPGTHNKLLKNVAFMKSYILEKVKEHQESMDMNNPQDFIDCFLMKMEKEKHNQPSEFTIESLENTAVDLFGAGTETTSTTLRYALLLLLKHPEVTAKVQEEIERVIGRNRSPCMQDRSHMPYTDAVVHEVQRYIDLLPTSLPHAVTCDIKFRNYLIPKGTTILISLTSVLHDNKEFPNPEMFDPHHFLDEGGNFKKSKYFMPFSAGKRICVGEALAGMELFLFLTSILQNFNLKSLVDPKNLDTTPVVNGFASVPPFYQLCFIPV
T1 sequence (P28845 whole entry): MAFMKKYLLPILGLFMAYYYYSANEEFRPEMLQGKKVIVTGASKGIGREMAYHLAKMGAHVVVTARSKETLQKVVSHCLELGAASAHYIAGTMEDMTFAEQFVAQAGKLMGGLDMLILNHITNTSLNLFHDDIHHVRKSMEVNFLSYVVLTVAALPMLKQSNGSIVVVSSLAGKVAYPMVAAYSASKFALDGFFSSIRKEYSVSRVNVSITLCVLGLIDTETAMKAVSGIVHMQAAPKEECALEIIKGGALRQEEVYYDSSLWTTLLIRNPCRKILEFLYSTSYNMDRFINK
Chain of CYP3A4 (P08684 whole entry): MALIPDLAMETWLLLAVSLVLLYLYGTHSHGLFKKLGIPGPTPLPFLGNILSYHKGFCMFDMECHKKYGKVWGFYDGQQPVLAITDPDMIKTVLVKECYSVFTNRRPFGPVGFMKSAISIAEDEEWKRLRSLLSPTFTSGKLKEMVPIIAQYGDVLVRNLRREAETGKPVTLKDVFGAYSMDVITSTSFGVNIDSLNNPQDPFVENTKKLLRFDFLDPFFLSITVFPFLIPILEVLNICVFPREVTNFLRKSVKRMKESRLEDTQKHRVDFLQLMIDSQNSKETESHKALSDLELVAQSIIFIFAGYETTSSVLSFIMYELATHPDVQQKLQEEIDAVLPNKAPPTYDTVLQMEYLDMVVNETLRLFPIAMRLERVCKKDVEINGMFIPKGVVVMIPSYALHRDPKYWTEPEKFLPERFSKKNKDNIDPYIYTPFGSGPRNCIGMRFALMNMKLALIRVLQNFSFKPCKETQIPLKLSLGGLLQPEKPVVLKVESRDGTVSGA
Chain of CYP2C19 (P33261 whole entry): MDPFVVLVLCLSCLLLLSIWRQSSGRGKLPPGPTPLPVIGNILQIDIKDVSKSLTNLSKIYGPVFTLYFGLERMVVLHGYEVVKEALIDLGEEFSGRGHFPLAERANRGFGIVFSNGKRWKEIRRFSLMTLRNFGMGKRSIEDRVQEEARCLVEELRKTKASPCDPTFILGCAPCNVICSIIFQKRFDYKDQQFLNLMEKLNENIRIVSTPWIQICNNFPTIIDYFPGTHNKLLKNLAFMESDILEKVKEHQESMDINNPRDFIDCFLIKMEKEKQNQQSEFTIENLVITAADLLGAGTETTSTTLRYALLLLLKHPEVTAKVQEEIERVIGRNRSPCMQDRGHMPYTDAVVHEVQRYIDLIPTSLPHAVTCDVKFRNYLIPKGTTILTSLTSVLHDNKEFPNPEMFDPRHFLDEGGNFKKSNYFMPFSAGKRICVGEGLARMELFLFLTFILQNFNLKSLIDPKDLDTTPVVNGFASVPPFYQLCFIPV

Cc1cc(-c2ccc([C@H](C)N3CCC(CCN4CCCS4(=O)=O)(c4ccccc4)OC3=O)cc2)ccn1 (stereo in doubt) [EXAMPLE 118, (R)-3-((S)-1-(4-(2-methylpyridin-4-yl)phenyl)ethyl)-6-phenyl-6-(2-(1,1-dioxoisothiazolidin-2-yl)ethyl)-1,3-oxazinan-2-one]
Average % inhibition at 100 nM ([1]; 100 nM): 86.3% | IC50 ([1]; read-out: Biological Test Example 1 IC50): 0.0192 µM | IC50 ([1]; read-out: IC50 Range, Biological Test Example 1): < 0.1 µM

COc1ccc(-c2ccc([C@H](C)N3CC[C@](CCC(N)=O)(c4ccccc4)OC3=O)cc2)cn1 [EXAMPLE 52, 3-((R)-3-((S)-1-(4-(6-methoxypyridin-3-yl)phenyl)ethyl)-2-oxo-6-phenyl-1,3-oxazinan-6-yl)propanamide]
Biological Test Example 5 (%) [2]: 1.8% | IC50 [3]: > 50 µM | IC50 [4, 9]: 1.1 nM | IC50 [4, 10]: < 100 nM | inhibition at 0.1 µM [4]: 94.5% | IC50 [5]: 0.0105 µM

C[C@@H](c1ccc(-c2ccccn2)cc1)N1CC[C@](CCCNS(C)(=O)=O)(c2ccc(F)cc2)OC1=O [EXAMPLE 61, N-(3-((R)-6-(4-fluorophenyl)-2-oxo-3-((S)-1-(4-(pyridin-2-yl)phenyl)ethyl)-1,3-oxazinan-6-yl)propyl)methanesulfonamide]
IC50 [6]: 9.9 µM | IC50 [7]: 23 µM | IC50 [3]: 29.2 µM | IC50 [4, 9]: 0.7 nM | IC50 [4, 10]: < 100 nM | inhibition at 0.1 µM [4]: 96.2% | IC50 [8]: 40 µM | IC50 [5]: 0.0136 µM | Shift [5]: 18.2

Cc1cc(-c2ccc([C@H](C)N3CC[C@](CC(C)(C)O)(c4ccc(F)cc4)OC3=O)cc2)ccn1 [EXAMPLE 76, (S)-6-(4-fluorophenyl)-6-(2-hydroxy-2-methylpropyl)-3-((S)-1-(4-(2-methylpyridin-4-yl)phenyl)ethyl)-1,3-oxazinan-2-one]
IC50 [6]: 7.9 µM | IC50 [7]: 2.9 µM | IC50 [3]: 5 µM | IC50 [4, 9]: 0.8 nM | IC50 [4, 10]: < 100 nM | inhibition at 0.1 µM [4]: 98.7% | IC50 [8]: 8.5 µM | IC50 [5]: 0.0069 µM | Shift [5]: 8.8

Cc1cc(-c2ccc([C@H](C)N3CC[C@](CCCNS(C)(=O)=O)(c4ccc(F)cc4)OC3=O)cc2)ccn1 [EXAMPLE 80, N-(3-((R)-6-(4-fluorophenyl)-3-((S)-1-(4-(2-methylpyridin-4-yl)phenyl)ethyl)-2-oxo-1,3-oxazinan-6-yl)propyl)methanesulfonamide]
IC50 [6]: 8.9 µM | IC50 [7]: 11.2 µM | IC50 [3]: 13 µM | IC50 [4, 9]: 1 nM | IC50 [4, 10]: < 100 nM | inhibition at 0.1 µM [4]: 96% | IC50 [8]: 13.2 µM | IC50 [5]: 0.0055 µM | Shift [5]: 5.4

Cc1cc(-c2ccc([C@H](C)N3CC[C@](CC(C)(C)O)(c4ccccc4)OC3=O)cc2)ccn1 [EXAMPLE 97, (S)-6-(2-hydroxy-2-methylpropyl)-3-((S)-1-(4-(2-methylpyridin-4-yl)phenyl)ethyl)-6-phenyl-1,3-oxazinan-2-one]
IC50 [6]: 9.7 µM | IC50 [7]: 11.2 µM | IC50 [3]: 8.9 µM | IC50 [4, 9]: 1 nM | IC50 [4, 10]: < 100 nM | inhibition at 0.1 µM [4]: 98.8% | IC50 [8]: 19.5 µM | IC50 [5]: 0.0108 µM | Shift [5]: 11.1

C[C@@H](c1ccc(-c2ccc(C#N)cn2)cc1)N1CC[C@](CC(C)(C)O)(c2ccc(F)cc2)OC1=O [EXAMPLE 111, 6-(4-((S)-1-((S)-6-(4-fluorophenyl)-6-(2-hydroxy-2-methylpropyl)-2-oxo-1,3-oxazinan-3-yl)ethyl)phenyl)nicotinonitrile]
Biological Test Example 5 (%) [2]: 2% | IC50 [6]: 4.7 µM | IC50 [7]: > 50 µM | IC50 [3]: 9.8 µM | IC50 [4, 9]: 0.8 nM | IC50 [4, 10]: < 100 nM | inhibition at 0.1 µM [4]: 97.6% | IC50 [8]: > 50 µM | IC50 [5]: 0.0072 µM

C[C@@H](c1ccc(-c2cnccn2)cc1)N1CC[C@](CC(C)(C)O)(c2ccccc2)OC1=O [EXAMPLE 130, (S)-6-(2-hydroxy-2-methylpropyl)-6-phenyl-3-((S)-1-(4-(pyrazin-2-yl)phenyl)ethyl)-1,3-oxazinan-2-one]
Biological Test Example 5 (%) [2]: 1.9% | IC50 [6]: 9.7 µM | IC50 [7]: > 50 µM | IC50 [3]: 11.8 µM | IC50 [4, 9]: 2.5 nM | IC50 [4, 10]: < 100 nM | inhibition at 0.1 µM [4]: 97.9% | IC50 [8]: 3 µM | IC50 [5]: 0.0216 µM

C[C@@H](c1ccc(-c2ccncn2)cc1)N1CC[C@](CC(C)(C)O)(c2ccccc2)OC1=O [EXAMPLE 131, (S)-6-(2-hydroxy-2-methylpropyl)-6-phenyl-3-((S)-1-(4-(pyrimidin-4-yl)phenyl)ethyl)-1,3-oxazinan-2-one]
IC50 [6]: 11.2 µM | IC50 [7]: 14 µM | IC50 [3]: 5.6 µM | IC50 [4, 9]: 2.2 nM | IC50 [4, 10]: < 100 nM | inhibition at 0.1 µM [4]: 98.5% | IC50 [8]: 2.6 µM | IC50 [5]: 0.0051 µM

Cc1ccc(-c2ccc([C@H](C)N3CC[C@](CC(C)(C)O)(c4ccccc4)OC3=O)cc2)nn1 [EXAMPLE 134, (S)-6-(2-hydroxy-2-methylpropyl)-3-((S)-1-(4-(6-methylpyridazin-3-yl)phenyl)ethyl)-6-phenyl-1,3-oxazinan-2-one]
Biological Test Example 5 (%) [2]: 10.5% | IC50 [6]: > 30 µM | IC50 [7]: > 50 µM | IC50 [3]: > 50 µM | IC50 [8]: > 50 µM

C[C@@H](c1ccc(-c2ccc(F)cn2)cc1)N1CC[C@](CC(C)(C)O)(c2ccccc2)OC1=O [EXAMPLE 136, (S)-3-((S)-1-(4-(5-fluoropyridin-2-yl)phenyl)ethyl)-6-(2-hydroxy-2-methylpropyl)-6-phenyl-1,3-oxazinan-2-one]
Biological Test Example 5 (%) [2]: 0.3% | IC50 [6]: 9.6 µM | IC50 [7]: 20.1 µM | IC50 [3]: 24.1 µM | IC50 [8]: 24.7 µM

C[C@@H](c1ccc(-c2ccc(C#N)cn2)cc1)N1CC[C@](CC(C)(C)O)(c2ccccc2)OC1=O [EXAMPLE 138, 6-(4-((S)-1-((S)-6-(2-hydroxy-2-methylpropyl)-2-oxo-6-phenyl-1,3-oxazinan-3-yl)ethyl)phenyl)nicotinonitrile]
Biological Test Example 5 (%) [2]: 2% | IC50 [7]: 22.2 µM | IC50 [3]: 12.7 µM | IC50 [8]: 24.2 µM

Cc1ncc(-c2ccc([C@H](C)N3CC[C@](CC(C)(C)O)(c4ccccc4)OC3=O)cc2)cn1 [EXAMPLE 149, (S)-6-(2-hydroxy-2-methylpropyl)-3-((S)-1-(4-(2-methylpyrimidin-5-yl)phenyl)ethyl)-6-phenyl-1,3-oxazinan-2-one]
Biological Test Example 5 (%) [2]: 2.7% | IC50 [6]: 17.4 µM | IC50 [7]: > 50 µM | IC50 [3]: > 50 µM | IC50 [8]: > 50 µM
